Several values for one entry are separate records, joined by “and”; a condition that tells them apart may be missing. Identical values can stand only once.
Assays:
Format in all cases: cell-based
[1] = tested on: Phaeodactylum tricornutum; experiment: Oil content by Nile Red staining with hormone supplements (Example 3); settings: 1 week, ratio to average of two controls, triplicate
Experimental: (§1) TX, and were grown at 22° C. under constant white light at an intensity of 175 micromole photon m^−2 s−1. Chlamydomonas reinhardtii (UTEX strain 90), Chlorella vulgaris (UTEX 2714) and Haematococcus pluvialis (UTEX strain 2505) were grown in TAP medium {Harris E H: The Chlamydomonas sourcebook: A comprehensive guide to biology and laboratory use. New-York: Academic Press; 1989}. Phaeodactylum tricornutum (UTEX strain 642) was grown in a modified LDM medium {Lewin, R. A., 1959. The isolation of algae. Rev. algol. no. 3: 182-197}.
(§2) Algal cells of Chlamydomonas reinhardtii, Phaeodactylum tricornutum and Haematococcus pluvialis, were each grown to a concentration of 10^5 cells/ml and divided into 7×250-ml flasks, each containing 50 ml medium with the following supplements (all values are final hormone concentrations):
(§3) IAA: 1.0 mg/liter, NAA: 1.0 mg/liter, 2,4-D: 1.0 mg/liter, 6-BAP: 0.1 mg/liter, and Kinetin: 0.1 mg/liter.
(§4) Oil content was measured in triplicate 1 week after addition of the hormones to the medium, using Nile Red staining: 200 μl of algal cells were placed in a 96-well plate (Costar 3596), mixed with 10 μl of Nile Red solution (N3013, Sigma. 1 mg/ml stock in acetone) and incubated for 10 minutes at room-temperature. Fluorescence was measured using a Thermo Electron Fluroskan Ascent with excitation at 485 nm and emission at 590 nm 200 μl of fresh growth media with 10 μl of Nile Red were used for blank measurements. Fluorescence was normalized against cell density as measured by an EL×808 microplate reader (BIOTEK Instruments Inc) at 630 nm and verified by cell count of selected samples. For each treatment the normalized oil content was defined as the oil content divided by the cell density. The average of the normalized oil content of the triplicates for each treatment was calculated. The effect of each treatment was determined by the ratio between the average of the normalized oil content and the average of the two control experiments.

[2] = tested on: Chlamydomonas reinhardtii; experiment: as above; settings: 1 week, ratio to average of two controls, triplicate
Experimental: as §1, §2, §3, §4

Haematococcus pluvialis = experiment: as above; settings: 1 week, ratio to average of two controls, triplicate
Experimental: as §1, §2, §3, §4

[3] = tested on: Chlamydomonas reinhardtii; experiment: Cell density (OD 450 nm), C. reinhardtii with hormone supplements (Example 2); settings: 1 week after addition, duplicates
Experimental: (§5) Algae were grown to a concentration of 10^5 cells/ml and divided into 10×250-ml flasks, each containing 50 ml TAP medium with the following hormone supplements (all values are final hormone concentrations):
(§6) IAA: 0.5 mg/liter and 1 mg/liter, NAA: 0.5 mg/liter and 1 mg/liter, 6-BAP: 0.05 mg/liter and 0.1 mg/liter, and Kinetin: 0.05 mg/liter and 0.1 mg/liter. No supplement was added to Controls 1 and 2.
(§7) Oil content was measured, in duplicate, one week after addition of the hormones to the medium, using Nile Red staining. 200 μl of Chlamydomonas reinhardtii cells were placed in a 96-well plate (Costar 3596), mixed with 10 μl of Nile Red solution (N3013, Sigma. 1 mg/ml stock in acetone) and incubated for 15 minutes at room-temperature. Fluorescence was measured using a Thermo Electron Fluroskan Ascent with excitation at 544 nm and emission at 590 nm 200 μl of fresh growth media with 10 μl of Nile Red were used for blank measurements. Fluorescence was normalized against cell density as measured by an EL×808 microplate reader (BIOTEK Instruments Inc) at 450 nm and verified by cell count of selected samples.
(§8) The growth rate in each flask was estimated by measuring the OD (optical density, at 450 nm), which represents cell density. For each treatment the normalized oil content was defined as the oil content divided by the cell density. The average of the normalized oil content of the duplicates for each treatment was calculated. The effect of each treatment was determined by the ratio between the average of the normalized oil content and the average of the two control experiments.

[4] = tested on: Chlamydomonas reinhardtii; experiment: Oil content by Nile Red staining, C. reinhardtii with hormone supplements (Example 2); parameters: Oil content: unit not given here; settings: for Oil content: Nile Red fluorescence; for Oil content / Normalized oil content: duplicates; for Average normalized oil content: average of duplicates; for Normalized oil content: oil content divided by cell density; for Effect: ratio of average normalized oil content to average of two controls
Experimental: as §1, §5, §6, §7, §8

Question: Which results are given for `O=C(O)COc1ccc(Cl)cc1Cl` [2,4-D, 2,4-dichlorophenoxy acetic acid]?
Answer: Effect of addition of hormones to growth medium on oil content ([1]; supplement 1 mg/l): 1.09 ± 0.04; Effect of addition of hormones to growth medium on oil content ([2]; supplement 1 mg/l): 1.21 ± 0.03; Effect of addition of hormones to growth medium on oil content (Haematococcus pluvialis; supplement 1 mg/l): 1.69 ± 0.51

Question: Which “Effect of addition of hormones to growth medium on oil content” value (shortened to “Effect of addition of hormones”) ([1]; supplement 0.1 mg/l) does the source give for `c1ccc(CNc2ncnc3nc[nH]c23)cc1` [6-BAP, 6-Benzylaminopurine] here?
Answer: 1.32 ± 0.20

Question: And the “Effect of addition of hormones” value ([2]; supplement 0.1 mg/l)?
Answer: 1.22 ± 0.13

Question: What about the “Effect of addition of hormones” value (Haematococcus pluvialis; supplement 0.1 mg/l) of the same compound?
Answer: 1.28 ± 0.20

Question: What about the Cell density ([3]; supplement 0.05 mg/l) of the same compound?
Answer: 0.29 and 0.27

Question: And the Cell density ([3]; supplement 0.1 mg/l)?
Answer: 0.28 and 0.27

Question: What about the Oil content ([4]; supplement 0.05 mg/l, 1 week) of the same compound?
Answer: 2.709 and 2.587

Question: What about the “Average normalized oil content” value ([4]; supplement 0.05 mg/l) of the same compound?
Answer: 9.41

Question: What about the Normalized oil content ([4]; supplement 0.05 mg/l) of the same compound?
Answer: 9.28 and 9.55

Question: What about the Effect ([4]; supplement 0.05 mg/l) of the same compound?
Answer: 1.29 ± 0.02

Question: What about the Oil content ([4]; supplement 0.1 mg/l, 1 week) of the same compound?
Answer: 3.04 and 2.891

Question: And the “Average normalized oil content” value ([4]; supplement 0.1 mg/l)?
Answer: 10.65

Question: What about the Normalized oil content ([4]; supplement 0.1 mg/l) of the same compound?
Answer: 10.74 and 10.55

Question: What about the Effect ([4]; supplement 0.1 mg/l) of the same compound?
Answer: 1.46 ± 0.02

Question: With `O=C(O)Cc1c[nH]c2ccccc12` [IAA, Indole-3-acetic acid] as the compound, how does the “Effect of addition of hormones” value ([1]; supplement 1 mg/l) read?
Answer: 0.97 ± 0.04

Question: And the “Effect of addition of hormones” value ([2]; supplement 1 mg/l)?
Answer: 1.05 ± 0.11

Question: What about the “Effect of addition of hormones” value (Haematococcus pluvialis; supplement 1 mg/l) of the same compound?
Answer: 0.96 ± 0.15

Question: What about the Cell density ([3]; supplement 0.5 mg/l) of the same compound?
Answer: 0.29 and 0.26

Question: And the Cell density ([3]; supplement 1.0 mg/l)?
Answer: 0.33 and 0.30

Question: And the Oil content ([4]; supplement 0.5 mg/l, 1 week)?
Answer: 2.747 and 2.748

Question: What about the “Average normalized oil content” value ([4]; supplement 0.5 mg/l) of the same compound?
Answer: 10.17

Question: And the Normalized oil content ([4]; supplement 0.5 mg/l)?
Answer: 9.57 and 10.78

Question: What about the Effect ([4]; supplement 0.5 mg/l) of the same compound?
Answer: 1.39 ± 0.11

Question: And the Oil content ([4]; supplement 1.0 mg/l, 1 week)?
Answer: 3.283 and 3.635

Question: And the “Average normalized oil content” value ([4]; supplement 1.0 mg/l)?
Answer: 10.92

Question: What about the Normalized oil content ([4]; supplement 1.0 mg/l) of the same compound?
Answer: 9.89 and 11.96

Question: And the Effect ([4]; supplement 1.0 mg/l)?
Answer: 1.49 ± 0.20

Question: `c1coc(CNc2ncnc3[nH]cnc23)c1` [Kinetin] was tested. Which “Effect of addition of hormones” value ([1]; supplement 0.1 mg/l) did it give?
Answer: 1.19 ± 0.02

Question: What about the “Effect of addition of hormones” value ([2]; supplement 0.1 mg/l) of the same compound?
Answer: 1.23 ± 0.03

Question: And the “Effect of addition of hormones” value (Haematococcus pluvialis; supplement 0.1 mg/l)?
Answer: 1.09 ± 0.03

Question: What about the Cell density ([3]; supplement 0.05 mg/l) of the same compound?
Answer: 0.31 and 0.28

Question: And the Cell density ([3]; supplement 0.1 mg/l)?
Answer: 0.29 and 0.27

Question: What about the “increase compared to controls (oil content)” value ([4]; 0.1 mg/liter, 1 week, maximum effect) of the same compound?
Answer: 67%

Question: What about the Oil content ([4]; supplement 0.05 mg/l, 1 week) of the same compound?
Answer: 3.023 and 3.071

Question: And the “Average normalized oil content” value ([4]; supplement 0.05 mg/l)?
Answer: 10.47

Question: What about the Normalized oil content ([4]; supplement 0.05 mg/l) of the same compound?
Answer: 9.85 and 11.09

Question: And the Effect ([4]; supplement 0.05 mg/l)?
Answer: 1.43 ± 0.12

Question: And the Oil content ([4]; supplement 0.1 mg/l, 1 week)?
Answer: 3.503 and 3.38

Question: What about the “Average normalized oil content” value ([4]; supplement 0.1 mg/l) of the same compound?
Answer: 12.24

Question: And the Normalized oil content ([4]; supplement 0.1 mg/l)?
Answer: 11.91 and 12.57

Question: What about the Effect ([4]; supplement 0.1 mg/l) of the same compound?
Answer: 1.67 ± 0.06

Question: What does the source list for `O=C(O)Cc1cccc2ccccc12` [NAA, α-Naphthaleneacetic acid]?
Answer: Effect of addition of hormones to growth medium on oil content ([1]; supplement 1 mg/l): 0.90 ± 0.07; Effect of addition of hormones to growth medium on oil content ([2]; supplement 1 mg/l): 0.99 ± 0.01; Effect of addition of hormones to growth medium on oil content (Haematococcus pluvialis; supplement 1 mg/l): 1.49 ± 0.35; Cell density ([3]; supplement 0.5 mg/l): 0.32 and 0.29; Cell density ([3]; supplement 1.0 mg/l): 0.31 and 0.30; Oil content ([4]; supplement 0.5 mg/l, 1 week): 2.677 and 2.59; Average normalized oil content ([4]; supplement 0.5 mg/l): 8.67; Normalized oil content ([4]; supplement 0.5 mg/l): 8.44 and 8.90; Effect ([4]; supplement 0.5 mg/l): 1.19 ± 0.04; Oil content ([4]; supplement 1.0 mg/l, 1 week): 3.059 and 3.232; Average normalized oil content ([4]; supplement 1.0 mg/l): 10.36; Normalized oil content ([4]; supplement 1.0 mg/l): 9.84 and 10.88; Effect ([4]; supplement 1.0 mg/l): 1.42 ± 0.10

Source: patent US20150004704A1, “COMPOSITIONS AND METHODS FOR INCREASING OIL CONTENT IN ALGAE” (A.B. Seeds Ltd., priority 2009, published 2015)
